One assay concerns KB. Kind of assay: Growth inhibition of human KB cells after 48 hrs by SRB assay. Type of assay: functional, cell-based. Background: Sulforhodamine B stains cellular protein and so reports cell mass.
The test system of a further assay is A549. Kind of assay: Growth inhibition of human A549 cells after 48 hrs by SRB assay. The conditions noted are these: A549, 48 h. The class given is functional, cell-based.
For a further assay, the system named is MKN-45. In words: Growth inhibition of human MKN45 cells after 48 hrs by SRB assay. Type of assay: functional, cell-based. The following applies: MKN-45, 48 h.
The target of a further assay is Tubulin (Bos taurus, UniProt Q6B856+Q862L2+Q862F3).
Assay [1] can be described thus: Growth inhibition of human KB-VIN10 cells after 48 hrs by SRB assay. The following applies: KB-VIN10, 48 h. Type of assay: functional.
Assay [2] can be described thus: Growth inhibition of human KB-S15 cells after 48 hrs by SRB assay. The following applies: KB-S15, 48 h. Type of assay: functional.
Assay [3] is described as follows: Growth inhibition of human KB-7d cells after 48 hrs by SRB assay. The following applies: KB7D. Type of assay: functional.
The target of assay [4] is T1, Tubulin (Bos taurus) (UniProt Q6B856+Q862L2+Q862F3). The conditions noted are these: at 1 µM.
The target of assay [5] is T1, Tubulin (Bos taurus). The following applies: at 5 µM.
Assay [6] has as its target T2, Polyamine deacetylase HDAC10 (Homo sapiens, UniProt Q969S8).
T2 sequence (Q969S8 whole entry): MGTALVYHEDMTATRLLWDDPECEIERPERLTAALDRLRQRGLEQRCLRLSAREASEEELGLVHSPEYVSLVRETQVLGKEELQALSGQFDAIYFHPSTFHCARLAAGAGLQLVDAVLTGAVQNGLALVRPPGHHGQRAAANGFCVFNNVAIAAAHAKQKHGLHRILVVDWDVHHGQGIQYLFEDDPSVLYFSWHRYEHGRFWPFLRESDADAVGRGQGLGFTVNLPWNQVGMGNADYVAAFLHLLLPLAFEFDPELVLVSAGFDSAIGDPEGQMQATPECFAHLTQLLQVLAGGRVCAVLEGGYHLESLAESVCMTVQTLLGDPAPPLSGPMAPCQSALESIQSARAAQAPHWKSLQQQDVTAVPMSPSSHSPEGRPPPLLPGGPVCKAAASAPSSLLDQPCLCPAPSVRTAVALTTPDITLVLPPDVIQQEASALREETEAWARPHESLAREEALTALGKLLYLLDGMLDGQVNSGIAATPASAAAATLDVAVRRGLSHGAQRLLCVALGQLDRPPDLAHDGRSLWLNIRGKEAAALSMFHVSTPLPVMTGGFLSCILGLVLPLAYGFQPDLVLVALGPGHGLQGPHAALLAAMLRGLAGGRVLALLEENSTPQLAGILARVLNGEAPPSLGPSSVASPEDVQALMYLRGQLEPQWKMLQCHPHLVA
In words: Inhibition of human HDAC10 using RHKKAc as substrate by fluorescence assay.

The next assay concerns the target Histone deacetylase 4 (Homo sapiens, UniProt P56524). Kind of assay: Inhibition of human HDAC4 using fluorogenic p53-derived peptide RHKK(Ac) as substrate by fluorescence assay.
Another assay has as its target Histone deacetylase 9 (Homo sapiens, UniProt Q9UKV0). Kind of assay: Inhibition of human HDAC9 using fluorogenic p53 (379-382) peptide RHKK(Ac) as substrate by fluorescence assay.

As usually defined, the IC50 is the concentration at which inhibition is half-maximal. A higher IC50 goes with weaker potency in that assay. Broadly, the inhibition is the percentage by which the read-out fell short of the control. Read a low inhibition as a response near the control.

Sequence of Histone deacetylase 4 (P56524 whole entry): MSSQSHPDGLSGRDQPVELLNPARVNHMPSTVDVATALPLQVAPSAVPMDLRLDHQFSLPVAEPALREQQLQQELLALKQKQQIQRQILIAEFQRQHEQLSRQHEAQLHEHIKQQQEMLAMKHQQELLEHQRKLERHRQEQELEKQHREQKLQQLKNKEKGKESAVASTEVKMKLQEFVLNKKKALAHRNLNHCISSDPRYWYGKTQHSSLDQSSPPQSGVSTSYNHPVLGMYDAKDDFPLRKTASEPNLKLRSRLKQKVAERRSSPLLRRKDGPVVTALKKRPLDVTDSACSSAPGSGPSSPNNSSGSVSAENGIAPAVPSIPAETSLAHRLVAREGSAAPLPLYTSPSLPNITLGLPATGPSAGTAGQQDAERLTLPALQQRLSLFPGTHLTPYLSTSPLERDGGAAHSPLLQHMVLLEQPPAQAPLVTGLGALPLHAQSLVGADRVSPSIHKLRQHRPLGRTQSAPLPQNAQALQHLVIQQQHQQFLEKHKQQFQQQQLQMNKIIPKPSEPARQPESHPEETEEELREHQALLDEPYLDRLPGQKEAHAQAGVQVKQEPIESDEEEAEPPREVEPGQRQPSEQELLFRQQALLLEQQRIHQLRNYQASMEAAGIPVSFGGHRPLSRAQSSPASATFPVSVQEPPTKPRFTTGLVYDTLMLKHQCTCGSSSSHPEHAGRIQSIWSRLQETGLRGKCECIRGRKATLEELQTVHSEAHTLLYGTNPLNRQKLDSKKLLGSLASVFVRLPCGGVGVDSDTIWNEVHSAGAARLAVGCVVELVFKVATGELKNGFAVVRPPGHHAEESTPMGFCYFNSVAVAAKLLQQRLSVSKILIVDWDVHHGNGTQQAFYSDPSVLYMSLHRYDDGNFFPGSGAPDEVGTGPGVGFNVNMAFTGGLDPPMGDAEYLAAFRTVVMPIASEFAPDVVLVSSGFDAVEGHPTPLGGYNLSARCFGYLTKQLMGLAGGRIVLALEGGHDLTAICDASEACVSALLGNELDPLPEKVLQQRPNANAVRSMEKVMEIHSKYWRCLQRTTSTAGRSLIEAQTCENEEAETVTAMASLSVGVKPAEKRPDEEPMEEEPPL
Sequence of Histone deacetylase 9 (Q9UKV0 whole entry): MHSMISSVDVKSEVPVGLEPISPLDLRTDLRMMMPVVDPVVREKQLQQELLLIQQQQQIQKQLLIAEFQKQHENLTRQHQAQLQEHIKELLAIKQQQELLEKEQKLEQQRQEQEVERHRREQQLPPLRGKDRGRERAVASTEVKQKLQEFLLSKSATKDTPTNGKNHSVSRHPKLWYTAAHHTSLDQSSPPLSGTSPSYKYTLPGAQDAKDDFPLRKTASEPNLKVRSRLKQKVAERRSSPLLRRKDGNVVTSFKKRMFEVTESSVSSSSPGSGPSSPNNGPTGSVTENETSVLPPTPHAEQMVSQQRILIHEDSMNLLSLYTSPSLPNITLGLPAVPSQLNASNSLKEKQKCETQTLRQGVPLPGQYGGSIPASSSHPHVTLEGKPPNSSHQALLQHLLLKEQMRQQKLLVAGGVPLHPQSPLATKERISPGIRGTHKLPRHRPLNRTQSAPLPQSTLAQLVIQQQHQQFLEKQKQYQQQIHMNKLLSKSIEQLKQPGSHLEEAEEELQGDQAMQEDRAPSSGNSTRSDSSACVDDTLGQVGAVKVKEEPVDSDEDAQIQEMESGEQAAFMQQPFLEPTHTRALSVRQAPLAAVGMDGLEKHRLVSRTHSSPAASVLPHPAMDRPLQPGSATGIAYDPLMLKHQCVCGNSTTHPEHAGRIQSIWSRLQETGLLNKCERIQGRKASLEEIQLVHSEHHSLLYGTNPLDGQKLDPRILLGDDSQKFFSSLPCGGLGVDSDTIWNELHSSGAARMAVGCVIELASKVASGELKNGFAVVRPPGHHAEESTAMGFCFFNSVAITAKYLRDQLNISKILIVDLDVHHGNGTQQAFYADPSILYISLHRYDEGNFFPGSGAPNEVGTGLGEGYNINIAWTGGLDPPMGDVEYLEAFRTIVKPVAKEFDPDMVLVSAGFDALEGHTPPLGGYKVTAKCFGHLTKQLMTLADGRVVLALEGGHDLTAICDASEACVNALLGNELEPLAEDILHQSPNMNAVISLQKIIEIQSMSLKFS

Turning to `COc1cccc(S(=O)(=O)N2CCc3cccc(NCc4ccc(C(=O)Nc5ccccc5N)cc4)c32)c1`, the IC50 with KB was 780 nM; in the assay with A549, 1100 nM; in the assay on MKN-45, 800 nM; against Tubulin it was 3500 nM.
With `COc1ccc(S(=O)(=O)N2CCc3cccc(Nc4ccc(C(=O)Nc5ccccc5N)cc4)c32)cc1`, the concentration for half-maximal inhibition (IC50) with KB came out at 120 nM; with A549 it was 190 nM; in the assay with MKN-45, 140 nM; in assay [1], 114 nM; in assay [2] it was 106 nM; in [3], 78.3 nM. In addition, the 50% inhibitory concentration (IC50) against Tubulin turned out to be 2300 nM. The values for the inhibition at Tubulin (Bos taurus) [4] and at Tubulin (Bos taurus) [5] were 64.3% and 98.8%, respectively.
On to `Nc1ccccc1NC(=O)c1ccc(CNc2cccc3c2N(S(=O)(=O)c2ccccc2)CC3)cc1`, for which the IC50 in the assay on KB turned out to be 260 nM; with A549, 870 nM; in the assay on MKN-45, 780 nM; at Tubulin, 3200 nM.
For `N#Cc1ccc(S(=O)(=O)N2CCc3cccc(NCc4ccc(C(=O)Nc5ccccc5N)cc4)c32)cc1`, in that order: 560 nM, 920 nM, 880 nM and 6400 nM.
Turning to `COc1ccc(S(=O)(=O)n2ccc3cccc(NCc4ccc(C(=O)Nc5ccccc5N)cc4)c32)cc1`, the IC50 amounted to 130 nM in the assay on KB, 640 nM in the assay with A549, 440 nM in the assay on MKN-45 and 3700 nM against Tubulin.
For `COc1ccc(S(=O)(=O)N2CCc3cccc(NCc4cccc(C(=O)Nc5ccccc5N)c4)c32)cc1`, the IC50 came out at 2200 nM in the assay on KB, 5700 nM in the assay on A549, 3900 nM with MKN-45 and 8500 nM against Tubulin.
For `COc1ccc(S(=O)(=O)N2CCc3ccc(NCc4ccc(C(=O)Nc5ccccc5N)cc4)cc32)cc1`, in that order: 870 nM, 2400 nM, 2100 nM and more than 10000 nM.
At Tubulin, `COc1ccc(S(=O)(=O)Nc2cccnc2Nc2ccc(O)cc2)cc1` [ABT-751] registered an IC50 of 3200 nM. The values for the inhibition on Tubulin (Bos taurus) [4] and at Tubulin (Bos taurus) [5] were 40.2% and 71.6%, respectively.
For the compound `Nc1ccccc1NC(=O)c1ccc(CNc2cccc3c2N(S(=O)(=O)c2ccc(Cl)cc2)CC3)cc1`, the IC50 with KB was found to be 210 nM; in the assay with A549, 560 nM; in the assay with MKN-45, 460 nM; at Tubulin, 4000 nM.
As to `Nc1ccccc1NC(=O)c1ccc(CNc2cccc3c2N(S(=O)(=O)c2ccc(F)cc2)CC3)cc1`, the half-maximal inhibitory concentration (IC50) in the assay with KB was determined as 540 nM; in the assay with A549, 930 nM; in the assay on MKN-45, 870 nM; against Tubulin, 3700 nM.
The matching figures for `COc1ccc(S(=O)(=O)N2CCc3cccc(NCc4ccc(C(=O)Nc5ccc(N)cc5)cc4)c32)cc1`: 260 nM, 570 nM, 480 nM and 3700 nM.
For `COc1ccc(S(=O)(=O)N2CCc3cccc(NCc4ccc(C(=O)Nc5ccccc5O)cc4)c32)cc1`, in that order: 8700 nM, 10500 nM, 10000 nM and more than 10000 nM.
For `COc1ccc(S(=O)(=O)n2ccc3ccc(NCc4ccc(C(=O)Nc5ccccc5N)cc4)cc32)cc1`, the 50% inhibitory concentration (IC50) with KB is 1440 nM; in the assay on A549, 3900 nM; in the assay with MKN-45, 2500 nM; at Tubulin, more than 10000 nM.
In the case of `COc1ccc(S(=O)(=O)N2CCc3cccc(NCc4ccc(C(=O)Nc5cccc(N)c5)cc4)c32)cc1`, the IC50 in the assay on KB stood at 200 nM; with A549, 450 nM; in the assay with MKN-45, 420 nM; at Tubulin, 2300 nM.
For `COc1ccc(S(=O)(=O)N2CCc3cccc(/C=C/c4ccc(C(=O)Nc5ccccc5N)cc4)c32)cc1`, in that order: 230 nM, 270 nM, 200 nM and 2700 nM.
As to `Nc1ccccc1NC(=O)c1ccc(CNC(=O)OCc2cccnc2)cc1` [ENTINOSTAT], the IC50 with KB was 520 nM; in the assay with MKN-45 it was 1200 nM; in [6], “Not Active”; on Histone deacetylase 4 it was “Not Active”; at Histone deacetylase 9 it was “Not Active”.
As to `Nc1ccccc1NC(=O)c1ccc(CNc2cccc3c2N(S(=O)(=O)c2ccc(O)cc2)CC3)cc1`, the IC50 in the assay on KB came out at 440 nM; in the assay on A549, 860 nM; with MKN-45 it was 780 nM; on Tubulin, 3300 nM.
Regarding `COc1ccc(S(=O)(=O)N2CCc3cc(NCc4ccc(C(=O)Nc5ccccc5N)cc4)ccc32)cc1`, the half-inhibitory concentration (IC50) in the assay on KB is 2100 nM; in the assay with A549 it was 8900 nM; in the assay on MKN-45, 5000 nM; at Tubulin, more than 10000 nM.
In the case of `COc1ccc(S(=O)(=O)N2CCc3cccc(NC(=O)c4ccc(C(=O)Nc5ccccc5N)cc4)c32)cc1`, the IC50 with A549 was more than 10000 nM.
As for `COc1ccc(S(=O)(=O)N2CCc3cccc(NCc4ccc(C(=O)Nc5ccccc5N)cc4)c32)cc1OC`, the IC50 was 1400 nM with KB, 2700 nM in the assay on A549, 2300 nM in the assay on MKN-45 and more than 10000 nM on Tubulin.
In the case of `COc1ccc(S(=O)(=O)N2CCc3cccc(CCc4ccc(C(=O)Nc5ccccc5N)cc4)c32)cc1`, the concentration for half-maximal inhibition (IC50) in the assay on KB amounted to 110 nM; in the assay with A549, 200 nM; in the assay with MKN-45 it was 130 nM; on Tubulin, 2500 nM.

Source of the values: ChEMBL document CHEMBL4382249, “1-Arylsulfonyl indoline-benzamides as a new antitubulin agents, with inhibition of histone deacetylase” (Eur J Med Chem, 2019).
